Measurements: patent US20050031537A1, “Multifunctional COX-2 inhibitors” (priority 2002, published 2005)

Tests used:
[1] = Patient with Alzheimer's disease (Example V); format: in vivo, human; conditions: person two, 200 mg bid
Description: person two presents with symptoms of memory loss and is diagnosed with Alzheimer's disease. The patient is given and maintained on a 200 mg bid dose of indomethacin heptyl ester. The progression of the symptoms stops.

[2] = Patient with oral premalignant lesion (Example VII); format: in vivo, human; conditions: person, lozenges 100 mg twice a day for six months
Description: A person presents with a white patch on their tongue and is diagnosed as having an oral premalignant lesion.

## CCCCCCCOC(=O)Cc1c(C)n(C(=O)c2ccc(Cl)cc2)c2ccc(OC)cc12 [Indomethacin Analog 1, indomethacin heptyl ester]
[1]
  progression of the symptoms (memory loss, Alzheimer's disease): stops

## NS(=O)(=O)c1ccc(-n2nc(C(F)(F)F)cc2-c2ccc(Cl)cc2)cc1 [SC-236, 4-[5-(4-chlorophenyl)-3-(trifluoromethyl)-1H-pyrazol-1-yl]benzenesulfonamide]
[2]
  outcome of oral premalignant lesion: resolution of the premalignant lesion
